Patent US20150293106A1, “DIAROMATIC AMINO ACID SUBSTRATE FOR CATHEPSIN DETECTION” (INDUSTRY-ACADEMIC COOPERATION FOUNDATION, YONSEI UNIVERSITY, priority 2012, published 2015)
Entries after “also recorded” stand apart in the source; their conditions may differ. Marks after values point to notes of the source that are not given here.

Legend:
cathepsin B [1] = target: T1, cathepsin B (Homo sapiens, UniProt P07858); assay: Selective hydrolysis by cathepsins, fluorescence (FIG. 20); type: biochemical; design: cathepsins B and L derived from a human liver; purchased Sigma-Aldrich Chemical Co; host or cells: human liver; conditions: substrate 1.0 μM, protease 10 mM, 30 minutes
Description: (§1) The reaction was performed under alkaline conditions.
(§2) The results of experiments were illustrated in FIG. 20. Since the hydrolysis by cathepsin B was faster than the hydrolyses by papain and chymopapain, the reaction was performed with a substrate (concentration: 1.0 μM) and a protease (concentration: […]) of which the concentrations were set lower than those in Experimental Example 2 (substrate (concentration: 2.5 μM) and protease (concentration: 0.1 μM) reacted for two hours) for 30 minutes in FIG. 20. C1, C2, CB, CL, and CS represented on an X-axis respectively denote papain, chymopapain, cathepsin B, cathepsin L, and cathepsin S. Each experiment was repeated at least three times.

cathepsin B [2] = target: T1, cathepsin B; assay: Michaelis-Menten kinetics of hydrolysis by cysteine protease (Table 4); type: biochemical; design: cathepsins B and L derived from a human liver; purchased Sigma-Aldrich Chemical Co; host or cells: human liver; conditions: average and standard deviation, at least 3 experiments
Description: as §1

papain [3] = target: T2, papain (Carica papaya, UniProt P00784); assay: Degree of hydrolysis by protease (Table 3); type: biochemical, papaya latex; conditions: after 2 hours; protease 10 μM; substrate 0.2 mM (G1-G3, L1-L3) or 0.1 mM (G4, L4); hydrolysate INH
T2 construct: papain and chymopapain derived from papaya latex; purchased Sigma-Aldrich Chemical Co; host or cells: papaya latex
T2 sequence (P00784 134-345): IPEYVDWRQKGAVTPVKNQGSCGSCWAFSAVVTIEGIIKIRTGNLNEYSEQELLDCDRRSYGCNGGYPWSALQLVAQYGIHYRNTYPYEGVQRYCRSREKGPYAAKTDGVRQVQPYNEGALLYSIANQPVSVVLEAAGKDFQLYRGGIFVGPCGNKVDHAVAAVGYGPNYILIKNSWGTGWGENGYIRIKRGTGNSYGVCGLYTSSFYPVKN
Description: (§3) A hydrolysate was measured using a HPLC system.

cathepsin L [4] = target: T3, cathepsin L (Homo sapiens, UniProt P07711); assay: Selective hydrolysis by cathepsins, fluorescence (FIG. 20); type: biochemical; conditions: substrate 1.0 μM, protease 10 mM, 30 minutes
T3 construct: cathepsins B and L derived from a human liver; purchased Sigma-Aldrich Chemical Co; host or cells: human liver
Description: as §1, §2

cathepsin S = target: T4, cathepsin S (Homo sapiens, UniProt P25774); assay: as above; type: biochemical; conditions: substrate 1.0 μM, protease 10 mM, 30 minutes
T4 construct: cathepsin S derived from a human spleen; purchased Sigma-Aldrich Chemical Co; host or cells: human spleen
Description: as §1, §2

thermolysin = thermolysin (Bacillus thermoproteolyticus, UniProt P00800); conditions: after 2 hours; protease 10 μM; substrate 0.2 mM (G1-G3, L1-L3) or 0.1 mM (G4, L4); n.d. = no hydrolysis was detected; hydrolysate INH
Description: For the meaningful comparison of proteases, a hydrolysis reaction was performed under the optimum conditions as reported in other documents (regarding chymotrypsin, subtilisin, thermolysin and pepsin, refer to R. Beynon, J. S. Bond, Proteolytic Enzymes (Second Edition), Oxford University Press, 2001, pp. 295-316; regarding trypsin, proteinase K, carboxy peptidase A, collagenase, dispase, aspergillopepsin, papain, chymopapain, bromelain, cathepsin B, cathepsin L, and cathepsin S, refer to the catalog of Sigma-Aldrich Corporation).
Before the reaction, the mixtures of the reaction buffer solutions and proteases were previously incubated for 30 minutes in a water bath in which the temperature was adjusted to an analysis temperature. The hydrolysis reaction was initiated by adding a substrate dissolved in DMSO. The volume of the added substrate solution was controlled such that the final concentration of DMSO was lower than 1.5% (v/v).
A hydrolysate was measured using a HPLC system. In order to prepare a sample, a hydrolysis reaction was terminated by adding 2% (v/v) 1M HCl with respect to a serine protease, cysteine protease and metalloprotease, and adding 1M NaOH with respect to an aspartic protease. The separation was performed using the mixture of 10 mM-ammonium bicarbonate and acetonitrile as an eluent in C-18 column (particle size: 5 μm, 250 mm×4.6 mm, pore size: 80 Å, Phenomenex, USA). The elution was performed for 15 minutes, while the linear gradient of acetonitrile was increased from 0 to 60%. The flow rate and separation temperature of the eluent were maintained at 1 mL min^−1 and 35° C. The hydrolysate was detected at a wavelength of 254 nm.
Based on the report that a hydrophobic amino acid such as phenylalanine was preferred at a P2 position in most of the papain-like cysteine proteases, Boc-aromatic amino acid-Gly-INH and Boc-aromatic amino acid-Lys-INH were prepared in particular, and experimented as a substrate with respect to chymotrypsin, trypsin, papain, pepsin and thermolysis.

chymopapain = target: T5, chymopapain (Carica papaya, UniProt P14080); assay: Michaelis-Menten kinetics of hydrolysis by cysteine protease (Table 4); type: biochemical, papaya latex; conditions: average and standard deviation, at least 3 experiments
T5 construct: papain and chymopapain derived from papaya latex; purchased Sigma-Aldrich Chemical Co; host or cells: papaya latex
Description: as §1

papain [5] = target: T2, papain; assay: as above; type: biochemical, papaya latex; conditions: average and standard deviation, at least 3 experiments
Description: as §1

[6] = system: cysteine protease (papain, chymopapain, bromelain); assay: Protease-catalyzed hydrolysis, restored DBDY fluorescence (selectivity, FIGS. 11-19); type: biochemical, papaya latex; pineapple stem; conditions: substrate 2.5 μM, protease 0.1 μM, two hours
Description: as §1
(§4) The hydrolysis reaction was performed for two hours. […] Each experiment was repeated at least three times.

[7] = system: other proteases (non-cysteine proteases of the 13-protease panel); assay: as above; type: biochemical; conditions: substrate 2.5 μM, protease 0.1 μM, two hours
Description: as §1, §4

cathepsin L [8] = target: T3, cathepsin L; assay: Michaelis-Menten kinetics of hydrolysis by cysteine protease (Table 4); type: biochemical; conditions: average and standard deviation, at least 3 experiments
Description: as §1

pepsin = target: T6, pepsin (Sus scrofa, UniProt P00791); assay: Degree of hydrolysis by protease (Table 3); type: biochemical, pig; conditions: after 2 hours; protease 10 μM; substrate 0.2 mM (G1-G3, L1-L3) or 0.1 mM (G4, L4); n.d. = no hydrolysis was detected; hydrolysate INH
T6 construct: pepsin derived from pig gastric mucosa; purchased Sigma-Aldrich Chemical Co; host or cells: pig gastric mucosa
Description: as §3

chymotrypsin = target: T7, chymotrypsin (Bos taurus, UniProt P00766); assay: Degree of hydrolysis by protease (Table 3); type: biochemical, bovine; conditions: after 2 hours, protease 10 μM, substrate 0.2 mM (G1-G3, L1-L3) or 0.1 mM (G4, L4), n.d. = no hydrolysis was detected, hydrolysate Gly-INH (G), Lys-INH (L1-L3)
T7 construct: chymotrypsin and trypsin derived from fetal bovine pancreas; purchased Sigma-Aldrich Chemical Co; host or cells: bovine pancreas
Description: as §3

trypsin [9] = target: T8, trypsin (Bos taurus, UniProt P00760); assay: Protease-catalyzed hydrolysis, restored DBDY fluorescence (selectivity, FIGS. 11-19); type: biochemical, bovine; conditions: substrate 2.5 μM, protease 0.1 μM, two hours
T8 construct: chymotrypsin and trypsin derived from fetal bovine pancreas; purchased Sigma-Aldrich Chemical Co; host or cells: bovine pancreas
T8 sequence (P00760 24-246): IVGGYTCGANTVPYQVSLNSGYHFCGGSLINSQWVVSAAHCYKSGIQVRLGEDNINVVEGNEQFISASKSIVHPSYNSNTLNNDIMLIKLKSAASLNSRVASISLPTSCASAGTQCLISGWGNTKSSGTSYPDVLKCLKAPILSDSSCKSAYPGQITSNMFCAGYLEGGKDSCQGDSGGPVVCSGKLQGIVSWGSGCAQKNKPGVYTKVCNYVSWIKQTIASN
Description: as §1, §4

trypsin [10] = target: T8, trypsin; assay: Degree of hydrolysis by protease (Table 3); type: biochemical, bovine; conditions: after 2 hours; protease 10 μM; substrate 0.2 mM (G1-G3, L1-L3) or 0.1 mM (G4, L4); n.d. = no hydrolysis was detected; hydrolysate INH
Description: as §3

T3 sequence (P07711 114-333): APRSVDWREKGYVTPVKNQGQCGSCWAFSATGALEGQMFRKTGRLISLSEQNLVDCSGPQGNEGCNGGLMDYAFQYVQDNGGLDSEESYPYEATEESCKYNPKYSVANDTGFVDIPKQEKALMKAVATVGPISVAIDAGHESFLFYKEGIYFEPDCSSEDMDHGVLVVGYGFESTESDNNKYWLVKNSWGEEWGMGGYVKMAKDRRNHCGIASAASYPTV
T5 sequence (P14080 135-352): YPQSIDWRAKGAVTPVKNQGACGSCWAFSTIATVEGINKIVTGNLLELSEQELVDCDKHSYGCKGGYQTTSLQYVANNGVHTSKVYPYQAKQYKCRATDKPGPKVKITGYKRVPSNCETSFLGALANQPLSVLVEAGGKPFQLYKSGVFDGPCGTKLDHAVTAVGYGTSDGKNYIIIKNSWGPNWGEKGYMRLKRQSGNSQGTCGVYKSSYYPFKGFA
T4 sequence (P25774 115-331): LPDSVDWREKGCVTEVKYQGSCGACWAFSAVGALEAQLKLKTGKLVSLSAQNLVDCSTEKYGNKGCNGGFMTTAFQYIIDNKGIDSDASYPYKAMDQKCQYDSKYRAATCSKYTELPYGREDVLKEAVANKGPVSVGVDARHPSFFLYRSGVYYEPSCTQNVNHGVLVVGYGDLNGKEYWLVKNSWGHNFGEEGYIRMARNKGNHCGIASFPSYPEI
T6 sequence (P00791 60-385): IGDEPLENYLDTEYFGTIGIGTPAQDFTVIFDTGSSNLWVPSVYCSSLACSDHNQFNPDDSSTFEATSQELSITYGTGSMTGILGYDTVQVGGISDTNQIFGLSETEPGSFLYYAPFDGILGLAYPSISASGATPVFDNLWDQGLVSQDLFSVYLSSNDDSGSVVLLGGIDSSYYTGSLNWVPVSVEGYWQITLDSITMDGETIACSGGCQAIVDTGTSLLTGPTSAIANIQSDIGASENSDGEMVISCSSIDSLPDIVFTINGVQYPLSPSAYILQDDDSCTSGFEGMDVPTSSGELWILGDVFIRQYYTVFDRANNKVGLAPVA
thermolysin, sequence (P00800 233-548): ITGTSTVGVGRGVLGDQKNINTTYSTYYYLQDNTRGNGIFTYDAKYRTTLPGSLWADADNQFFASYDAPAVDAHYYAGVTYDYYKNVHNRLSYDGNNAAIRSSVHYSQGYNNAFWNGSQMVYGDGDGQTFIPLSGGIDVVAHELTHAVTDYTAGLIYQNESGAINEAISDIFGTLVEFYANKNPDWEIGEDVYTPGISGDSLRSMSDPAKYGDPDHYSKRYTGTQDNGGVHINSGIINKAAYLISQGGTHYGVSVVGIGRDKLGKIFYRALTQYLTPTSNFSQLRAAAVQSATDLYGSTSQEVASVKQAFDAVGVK

SMILES	hydrolysis by cathepsin B (cathepsin B [1])	Kcat (cathepsin B [2]) [s⁻¹]	Km (cathepsin B [2]) [µM]	degree of hydrolysis by Papain (papain [3]) [%]	hydrolysis by cathepsin L (cathepsin L [4])	hydrolysis by cathepsin S (cathepsin S)	degree of hydrolysis by Thermolysin (thermolysin) [%]	Kcat (chymopapain) [s⁻¹]	Km (chymopapain) [µM]	Kcat (papain [5]) [s⁻¹]	Km (papain [5]) [µM]	hydrolysis by cysteine proteases (increased fluorescence) [6]	hydrolysis by other (non-cysteine) proteases [7]	Kcat (cathepsin L [8]) [s⁻¹]	Km (cathepsin L [8]) [µM]	degree of hydrolysis by Pepsin (pepsin) [%]	degree of hydrolysis by Chymotrypsin (chymotrypsin)	hydrolysis by trypsin (increased fluorescence) (trypsin [9])	degree of hydrolysis by Chymotrypsin (chymotrypsin; listed as DBDY-(Lys-INH)2)	degree of hydrolysis by Trypsin (trypsin [10]) [%]
CC(C)(C)OC(=O)NC(Cc1ccc(O)c(-c2cc(CC(NC(=O)OC(C)(C)C)C(=O)NCC(=O)NNC(=O)c3ccncc3)ccc2O)c1)C(=O)NCC(=O)NNC(=O)c1ccncc1 (centres unmarked) [Substrate G4, DBDY-(Gly-INH)2]	hydrolyzed only by cathepsin B	0.0112 ± 0.001	2.88	62.2 ± 2.1	hydrolyzed only by cathepsin B	not hydrolyzed	0.74 ± 0.03	0.00567 ± 0.0005	4 ± 0.25	0.0257 ± 0.005	7.72 ± 1.25	showed sensitivity and selectivity for the cysteine protease; also recorded: selectivity for cysteine proteases	no hydrolysis by other proteases	0.0015 ± 0.00033	12.9 ± 3.69	2.98 ± 0.07	hardly hydrolyzed	–	–	–
CC(C)(C)OC(=O)NC(Cc1ccc(O)c(-c2cc(CC(NC(=O)OC(C)(C)C)C(=O)NC(CCCCN)C(=O)NNC(=O)c3ccncc3)ccc2O)c1)C(=O)NC(CCCCN)C(=O)NNC(=O)c1ccncc1 (centres unmarked) [Substrate L4, DBDY-(Lys-INH)2]	hydrolyzed	0.0362 ± 0.0025	2.01 ± 0.05	44.9 ± 2.8	hydrolyzed	not hydrolyzed	–	0.0005 ± 0.00017	2.2 ± 0.28	0.0173 ± 0.00183	7.2 ± 0.8	hydrolyzed; also recorded: selectivity for cysteine proteases	–	0.00333 ± 0.00017	1.17 ± 0.09	1.04 ± 0.03	7.15 ± 0.47 ^c %	hydrolyzed; also recorded: slightly hydrolyzed	hardly hydrolyzed	46.8 ± 1.7
